Test system: MERS-CoV pseudovirus
Assay: microbe, parasite or virus in culture
Type: cell-based
Conditions: Middle East respiratory syndrome-related coronavirus, Huh-7, read-out: MERS-CoV pseudovirus inhibitory activity IC50

| SMILES | IC50 [nM] |
| --- | --- |
| O=C(NCc1ccccc1)C(=O)[C@H](C[C@@H]1CCCNC1=O)NC(=O)[C@H](CC1CCCCC1)NC(=O)c1cc2ccccc2[nH]1 [Example A5] | 0.5 ± 0.2 |
| O=C(NC1CCCCC1)C(=O)[C@H](C[C@@H]1CCCNC1=O)NC(=O)[C@H](CC1CCCCC1)NC(=O)c1cc2ccccc2o1 [Example A15] | < 0.1 |
| O=C(NCc1ccccc1)C(=O)[C@H](C[C@@H]1CCCNC1=O)NC(=O)[C@H](CC1CCCCC1)NC(=O)c1cc2ccccc2s1 [Example A21] | 8.2 ± 3.2 |
| Cn1c(C(=O)N[C@@H](CC2CCCCC2)C(=O)N[C@@H](C[C@@H]2CCNC2=O)C(=O)C(=O)NC(C)(C)C)cc2ccccc21 [Example A25] | 407 ± 352 |
| Cn1c(C(=O)N[C@@H](CC2CCCCC2)C(=O)N[C@@H](C[C@@H]2CCNC2=O)C(=O)C(=O)NC2CCCCC2)cc2ccccc21 [Example A26, N—((S)-3-cyclohexyl-1-(((S)-4-(cyclohexylamino)-3,4-dione-1-((S)-2-oxopyrrolidine-3-yl)but-2-yl)amino)-3-cyclohexyl-1-oxopropan-2-yl)-1-methyl-1H-indole-2-carboxamide] | 7.8 ± 3.5 |
| Cn1c(C(=O)N[C@@H](CC2CCCCC2)C(=O)N[C@@H](C[C@@H]2CCCNC2=O)C(=O)C(=O)NCc2ccccc2)cc2ccccc21 [Example A27] | 8 ± 4 |
| CC(C)(C)NC(=O)C(=O)[C@H](C[C@@H]1CCNC1=O)NC(=O)[C@H](CC1CCCCC1)NC(=O)c1ccc2ccccc2n1 [Example A43] | 786 ± 458 |
| O=C(NC1CCCCC1)C(=O)[C@H](C[C@@H]1CCNC1=O)NC(=O)[C@H](CC1CCCCC1)NC(=O)c1ccc2ccccc2n1 [Example A44, N—((S)-3-cyclohexyl-1-(((S)-4-(cyclohexylamino)-3,4-dione-1-((S)-2-oxopyrrolidine-3-yl)but-2-yl)amino)-3-cyclohexyl-1-oxopropan-2-yl)-quinoline-2-carboxamide] | 18 ± 5.6 |
| O=C(NCc1ccccc1)C(=O)[C@H](C[C@@H]1CCCNC1=O)NC(=O)[C@H](Cc1ccccc1)NC(=O)c1cc2ccccc2[nH]1 [Example A51, N—((S)-1-(((S)-4-(benzylamino)-3,4-dione-1-((S)-2-oxopiperidine-3-yl)but-2-yl)amino)-1-oxo-3-phenylpropan-2-yl)-1H-indole-2-carboxamide] | < 0.1 |
| O=C(NCc1ccccc1)C(=O)[C@H](C[C@@H]1CCCNC1=O)NC(=O)[C@H](Cc1ccccc1)NC(=O)c1cnc2ccccc2n1 [Example A81, N—((S)-1-(((S)-4-(benzylamino)-3,4-dione-1-((S)-2-oxopiperidine-3-yl)but-2-yl)amino)-1-oxo-3-phenylpropan-2-yl)-quinoxaline-2-carboxamide] | 0.2 ± 0.1 |
| CC(C)NC(=O)CC[C@H](NC(=O)[C@H](CC1CCCCC1)NC(=O)c1cc2ccccc2[nH]1)C(=O)C(=O)NCc1ccccc1 [Example A232, N—((S)-1-(((S)-4-(benzyl)-3,4-dione-1-(isopropylamino)-2-yl)amino)-3-(cyclohexyl)-1-oxopropan-2-yl)-1H-indole-2-carboxamide] | 13.4 ± 3 |
| CC(C)NC(=O)CC[C@H](NC(=O)[C@H](CC1CCCCC1)NC(=O)c1cnc2ccccc2n1)C(=O)C(=O)NCc1ccccc1 [Example A236, N—((S)-1-(((S)-4-(benzyl)-3,4-dione-1-(isopropylamino)-2-yl)amino)-3-(cyclohexyl)-1-oxopropan-2-yl)-quinoxaline-2-carboxamide] | 16.6 ± 4 |
| O=C(NCc1ccccc1)C(=O)[C@H](C[C@@H]1CCCNC1=O)NC(=O)[C@H](CC1CCCCC1)NC(=O)c1cc2ccc(F)cc2[nH]1 [Example A240] | 15.9 ± 7 |
| O=C(NCc1ccccc1)C(=O)[C@H](C[C@@H]1CCCNC1=O)NC(=O)C(CC1CCCCC1)NC(=O)c1ccc2c(c1)OCO2 (stereo partly shown) [Example A243] | 10.7 ± 0.8 |
| O=C(NCc1ccccc1)C(=O)[C@H](C[C@@H]1CCCNC1=O)NC(=O)C(CC1CCCCC1)NC(=O)c1nc2ccccc2[nH]1 (stereo partly shown) [Example A244] | 12.6 ± 12.2 |
| COc1cccc2cc(C(=O)NC(CC3CCCCC3)C(=O)N[C@@H](C[C@@H]3CCCNC3=O)C(=O)C(=O)NCc3ccccc3)oc12 (stereo partly shown) [Example A245] | 18.4 ± 8 |

Reference: patent US12152017B2, “Ketoamide compound and preparation method, pharmaceutical composition, and use thereof” (Shanghai Institute of Materia Medica, Chinese Academy of …, priority 2018, dated 2024)
